# Measured values: patent publication US6998395B2, “Administration of estradiol metabolites for the treatment or prevention of obesity, metabolic syndrome, diabetes, and vascular and renal disorders” (University of Pittsburg,, priority 2001, dated 2006)
# How the values were obtained:
# Format in all cases: in vivo, rat
# female ZSF1 rats = experiment: Treatment of ovarectomized female ZSF1 rats for 24 weeks with 2-hydroxyestradiol; details: 10 ug/kg/hr
# Description: Male ZSF1 rats were treated continuously for 24 weeks with polyethylene glycol 400 (PEG 400) (Sigma, St. Louis, Mo.) or one of three doses of 2-hydroxyestradiol or 2-methoxyestradiol (Steraloids, Inc. Newport, R.I.) dissolved in PEG 400. The three doses were 1 ug/kg/hr, 3 ug/kg/hr or 10 ug/kg/hr. Female ZSF1 rats were treated continuously for 24 weeks with either PEG 400 or 10 ug/kg/hr of 2-hydroxyestradiol. Female ZSF1 rats were ovarectomized at 11 weeks of age. For all animals, both male and female, treatments with estradiol metabolites were begun at approximately 13 weeks of age. […]
# Metabolic cages (Nalgene, Rochester, N.Y.) were used in this study. […] The first 24-hour period was considered an acclimation period, while food and fluid intake and urine volume were measured during the second 24-hour period. […] The blood was further analyzed to assess creatinine clearance, fractional sodium excretion, fractional potassium excretion and fractional albumin excretion. In addition, the following criteria were also assessed while the animals were in the metabolic cages: body weight, feed intake, water intake, urine output, urinary protein, urinary albumin, urinary glucose, urinary sodium and urinary potassium. […]
# (§1) Food intake was measured by filling the food containers with standard powder laboratory food up to a total weight of 250 grams. […]
# male ZSF1 rats = experiment: Treatment of male ZSF1 rats for 24 weeks with 2-hydroxyestradiol or 2-methoxyestradiol
# Description: Male ZSF1 rats were treated continuously for 24 weeks with polyethylene glycol 400 (PEG 400) (Sigma, St. Louis, Mo.) or one of three doses of 2-hydroxyestradiol or 2-methoxyestradiol (Steraloids, Inc. Newport, R.I.) dissolved in PEG 400. The three doses were 1 ug/kg/hr, 3 ug/kg/hr or 10 ug/kg/hr. Female ZSF1 rats were treated continuously for 24 weeks with either PEG 400 or 10 ug/kg/hr of 2-hydroxyestradiol. Female ZSF1 rats were ovarectomized at 11 weeks of age. For all animals, both male and female, treatments with estradiol metabolites were begun at approximately 13 weeks of age. One group of male ZSF1 rats received only PEG 400 but were pair fed to receive the same daily food intake as the male ZSF1 rats treated with 10 ug/kg/hr 2-hydroxyestradiol. Treatment was administered via subcutaneous implanted pumps (Alzet Osmotic Pump, Model 2ML4, Alza Corporation, Palo Alto, Calif.). The study was designed to evaluate treatment effects and dose responses on body weight, food intake, water intake, urine output, urinary protein excretion, cholesterol levels, plasma glucose levels and glucose tolerance.
# Stock solutions of both 2-hydroxyestradiol and 2-methoxyestradiol were made by dissolving the required amount of estradiol metabolite in PEG 400. This solution was diluted in PEG 400 to deliver the three required doses based on the mean weight of each treatment group and the stated volume delivery rate for each lot of osmotic pumps in the study. This stock solution was prepared fresh prior to each osmotic pump implantation in each group. The control solution of PEG 400 was created in the same manner.
# All treatments were administered via a subcutaneously implanted osmotic pump (Alzet Osmotic Pump, Model 2ML4, Alza Corporation, Palo Alto, Calif.). Each lot of osmotic pumps were delivered with the stated rate of delivery and formulation concentrations were adjusted to ensure delivery of 1,3, or 10 ug/kg/hr based on the stated rate of delivery of each lot. Doses were adjusted for the mean weight of the animals in the treatment group obtained 24 hours prior to implantation of the osmotic minipump.
# Animals were anesthetized prior to implantation of an osmotic minipump with halothane and oxygen (2.5 liter/min) delivered by a Fluotec 3 anesthetic device (Ohmeda, Steeton, UK). After lightly anesthetizing each animal, implantation was accomplished by shaving the back and creating a half-inch incision in which to insert the osmotic minipump. The incision was then closed with wound clips that were removed in seven days. Osmotic minipumps were replaced at 33-day intervals and each time a particular animal received an osmotic minipump, the insertion point was changed.
# Metabolic cages (Nalgene, Rochester, N.Y.) were used in this study. Animals were placed in metabolic cages for 48 hours. The first 24-hour period was considered an acclimation period, while food and fluid intake and urine volume were measured during the second 24-hour period. Additionally, a tail vein sample was obtained to measure blood glucose, sodium, potassium, albumin and creatinine. The blood was further analyzed to assess creatinine clearance, fractional sodium excretion, fractional potassium excretion and fractional albumin excretion. In addition, the following criteria were also assessed while the animals were in the metabolic cages: body weight, feed intake, water intake, urine output, urinary protein, urinary albumin, urinary glucose, urinary sodium and urinary potassium.
# Body weights were assessed 24 hours before pump implantation and those weights were used to calculate the dosage of drug or vehicle to be given to each animal based on the mean body weight of each group. Animals were weighed approximately once every two months prior to being placed in a metabolic cage.
# as §1
# [1] = test system: mesenteric vascular bed of male obese ZSF1 rats; experiment: Mesenteric vascular reactivity to acetylcholine and sodium nitroprusside after 26 weeks of treatment; details: 10 ug/kg/hour s.c., versus control; for Vasodilation induced by sodium nitroprusside (mesenteric vascular resistance, FIG. 3): sodium nitroprusside 0.5, 1.5, 5.0 ug/min
# From the text: After 26 weeks of treatment, animals were anesthetized and instrumented for assessment of heart performance, renal hemodynamics and mesenteric vascular reactivity. A PE-50 catheter was advanced via the carotid artery into the left ventricle and connected to a heart-performance analyzer (Micro-Med, Inc., Louisville, Ky.) for continuous measurement of ten time/pressure variables. A PE-50 catheter was inserted into the femoral artery and connected to a blood pressure analyzer (Micro-Med, Inc.) for measurement of arterial blood pressure. A PE-10 catheter was inserted into the left ureter for urine collection, and a flow probe (Transonic Systems, Inc., Ithaca, N.Y.) was placed on the left renal artery for determination of renal blood flow. An infusion of ^14C-inulin (0.035 uCi/20 ul saline/min) was initiated, and after 60 minutes, two 30-minute clearance periods were conducted. A mid-point blood sample (300 ul) for measurement of radioactivity was collected. Plasma and urine ^14C-inulin radioactivity were measured, and renal clearance of ^14C-inulin was calculated. A flow probe was placed on the mesenteric artery for determination of mesenteric blood flow, and a 32-gauge needle was inserted into the mesenteric artery and attached to a Y-connector for dual intramesenteric artery infusions (25 ul/min each). Angiotensin II (30 ng/min) plus methoxamine (3 ug/min) was delivered via one intramesenteric artery infusion line into the mesenteric vascular bed to the mesenteric vascular bed. […] Vascular resistances were calculated as arterial blood pressure divided by blood flow.
# All values refer to means±SEM for 9 to 10 animals in each group. Statistical significance was calculated using either an unpaired Student's t-test or a 2-factor analysis of variance (repeated measures) followed by a Fisher's Least Significance Difference test if appropriate. […]
# male obese ZSF1 rats = experiment: Heart performance, arterial blood pressure and renal hemodynamics in anesthetized ZSF1 rats after 26 weeks of treatment; details: for Glomerular Filtration Rate / Renal Blood Flow / Renal Vascular Resistance: 26 weeks (approximately 6 months) of treatment; for Glomerular Filtration Rate: 14C-inulin clearance
# From the text: After 26 weeks of treatment, animals were anesthetized and instrumented for assessment of heart performance, renal hemodynamics and mesenteric vascular reactivity. A PE-50 catheter was advanced via the carotid artery into the left ventricle and connected to a heart-performance analyzer (Micro-Med, Inc., Louisville, Ky.) for continuous measurement of ten time/pressure variables. A PE-50 catheter was inserted into the femoral artery and connected to a blood pressure analyzer (Micro-Med, Inc.) for measurement of arterial blood pressure. A PE-10 catheter was inserted into the left ureter for urine collection, and a flow probe (Transonic Systems, Inc., Ithaca, N.Y.) was placed on the left renal artery for determination of renal blood flow. An infusion of ^14C-inulin (0.035 uCi/20 ul saline/min) was initiated, and after 60 minutes, two 30-minute clearance periods were conducted. A mid-point blood sample (300 ul) for measurement of radioactivity was collected. Plasma and urine ^14C-inulin radioactivity were measured, and renal clearance of ^14C-inulin was calculated. A flow probe was placed on the mesenteric artery for determination of mesenteric blood flow, and a 32-gauge needle was inserted into the mesenteric artery and attached to a Y-connector for dual intramesenteric artery infusions (25 ul/min each). Angiotensin II (30 ng/min) plus methoxamine (3 ug/min) was delivered via one intramesenteric artery infusion line into the mesenteric vascular bed to the mesenteric vascular bed. Next, vascular responses to increasing doses of acetylcholine (0.3, 1.0 and 3.0 ug/min, 5 minutes per dose) and sodium nitroprusside (0.5, 1.5 and 5.0 ug/min, 5 minutes per dose) were elicited by infusing these agents via the other intramesenteric artery infusion line into the mesenteric vascular bed. Vascular resistances were calculated as arterial blood pressure divided by blood flow.
# All values refer to means±SEM for 9 to 10 animals in each group. Statistical significance was calculated using either an unpaired Student's t-test or a 2-factor analysis of variance (repeated measures) followed by a Fisher's Least Significance Difference test if appropriate. The criterion of significance was p<0.05.
# [2] = male, 10 ug/kg/hr, 24 weeks, versus control animals
# [3] = male, 1, 3 or 10 ug/kg/hr s.c. osmotic pump, 24 weeks, versus control
# [4] = anesthetized, listed as 2-Hydroxyestradiol
# [5] = Table 2, after approximately 6 months of treatment
compound,measurement,setting,value
"C[C@]12CC[C@@H]3c4cc(O)c(O)cc4CC[C@H]3[C@@H]1CC[C@@H]2O [2-hydroxyestradiol, estra-1,3,5 (10)-triene-2,3,1 7-triol (17β)]",Leptin levels (FIG. 11),"female ZSF1 rats; 20 weeks, versus control animals",reduced
same,Blood urea nitrogen (FIG. 10),"female ZSF1 rats; 24 weeks, versus control groups",lower
same,Leptin levels (FIG. 11),"male ZSF1 rats; male, 10 ug/kg/hr, 20 weeks, versus control animals",clearly reduced
same,24-hour urine output (FIG. 13),male ZSF1 rats; [2],lower
same,24-hour water intake (FIG. 12),male ZSF1 rats; [2],lower
same,Blood urea nitrogen (FIG. 10),"male ZSF1 rats; male, 10 ug/kg/hr, 24 weeks, versus control groups",lower
same,"Plasma level of glucose after administration of 2 g/4 ml/kg glucose (oral glucose tolerance test, FIGS. 8 and 9)","male ZSF1 rats; male, 10 ug/kg/hr, treated for 14 to 15 weeks, versus control groups",lower
same,Body weight gain (FIGS. 4 and 5),male ZSF1 rats; [3],less body weight gain
same,Food intake,male ZSF1 rats; [3],lower food intake
same,Urinary protein excretion (FIG. 7),"male ZSF1 rats; male, 1, 3 or 10 ug/kg/hr, after 24 weeks of treatment, versus control animals",lower
same,Decreases in mesenteric vascular resistance induced by acetylcholine (FIG. 2),"[1]; acetylcholine 0.3, 1.0, 3.0 ug/min",greater
same,"Vasodilation induced by sodium nitroprusside (mesenteric vascular resistance, FIG. 3)",[1],non-significant effect
same,"Vasodilation induced by sodium nitroprusside (mesenteric vascular resistance, FIG. 3)",[1]; listed as 2-Hydroxyestradiol,only slightly (non-significantly) enhanced
same,Mean arterial blood pressure,"male obese ZSF1 rats; 10 ug/kg/hour s.c., 26 weeks of treatment, anesthetized",122±5 mm Hg
same,Effects on heart performance in situ,"male obese ZSF1 rats; 10 ug/kg/hour s.c., chronic treatment (26 weeks), versus control",no effects
same,Glomerular Filtration Rate,male obese ZSF1 rats,did not affect
same,Glomerular Filtration Rate,male obese ZSF1 rats; listed as 2-Hydroxyestradiol,0.76 ± 0.09 ml/min/gram kidney
same,Renal Blood Flow,male obese ZSF1 rats; anesthetized,did not affect
same,Renal Vascular Resistance,male obese ZSF1 rats; anesthetized,did not affect
same,Renal Blood Flow,male obese ZSF1 rats; [4],3.3 ± 0.6 ml/min/gram kidney
same,Renal Vascular Resistance,male obese ZSF1 rats; [4],42 ± 7 mm Hg/ml/min/gram kidney
same,+dP/dtmax,male obese ZSF1 rats; [5],"11,805 ± 943 mm Hg/sec"
same,+dP/dtmax/Ventricular Peak Systolic Pressure,male obese ZSF1 rats; [5],69.9 ± 2.5 s⁻¹
same,Duration of Contraction,male obese ZSF1 rats; [5],38.8 ± 3.5 ms
same,Duration of Relaxation,male obese ZSF1 rats; [5],96.3 ± 6.3 ms
same,Half-Time of Ventricular Relaxation,male obese ZSF1 rats; [5],49.1 ± 3.6 ms
same,Heart Rate,male obese ZSF1 rats; [5],352 ± 9 beats/min
same,Heart Rate × Ventricular Peak Systolic Pressure,male obese ZSF1 rats; [5],"60,949 ± 4,237 [beats/min] × mm Hg"
same,Mean Blood Pressure,male obese ZSF1 rats; [5],122 ± 5 mm Hg
same,Time Constant of Ventricular Relaxation,male obese ZSF1 rats; [5],16.7 ± 1.9 ms
same,Ventricular End Diastolic Pressure,male obese ZSF1 rats; [5],4.2 ± 1.0 mm Hg
same,Ventricular Minimum Diastolic Pressure,male obese ZSF1 rats; [5],−1.4 ± 1.1 mm Hg
same,Ventricular Peak Systolic Pressure,male obese ZSF1 rats; [5],172 ± 9 mm Hg
same,−dP/dtmax,male obese ZSF1 rats; [5],6853 ± 382 mm Hg/sec
